Starred links: 1 amine or outer side, 2 acyl side, 3 side chain; linkers in the order of their positions; H or OH if unused. Non-standard residues stand in square brackets, D forms with d. Residues, ends and D or L forms follow the SMILES beside them. *: point of attachment. NH(2-pyrrolidin-1-ylethyl) = C1CCN(CCN*)C1; dPhe(4-Cl) = N[C@H](Cc1ccc(Cl)cc1)C(=O)O; NH(CH2)10NH = C(CCCCCN[*:2])CCCCN[*:1]; d2Nal = N[C@H](Cc1ccc2ccccc2c1)C(=O)O; NMeY = CN[C@@H](Cc1ccc(O)cc1)C(=O)O; Ethylenediamine = C(CN[*:2])N[*:1]; d3Pal = N[C@H](Cc1cccnc1)C(=O)O; NHPhenethyl = c1ccc(CCN*)cc1; Nicotinoyl = O=C(c1cccnc1)*; NH(CH2)7NH2 = NCCCCCCCN*; NH(CH2)6NH2 = NCCCCCCN*; NH(CH2)5NH2 = NCCCCCN*; NH(CH2)4NH2 = NCCCCN*; X10 = N=C(N)NCCCCCCN*; NH(CH2)3NH2 = NCCCN*; X12 = N=C(N)NCCCCCN*; X11 = CC(C)NCCCCCN*; NHCH2CH2OH = OCCN*; X2 = N=C(N)NCCN*; NEt2 = CCN(CC)*; X4 = CC(C)NCCN*; NHBu = CCCCN*
The compounds below were run against T1, LH release from rat pituitary cells (Rattus norvegicus, UniProt P30969) (assay: in vitro inhibition of LH release from rat pituitary cells (pA2)). Conditions: pA2 = negative logarithm of antagonist concentration required to shift the response curve of the agonist leuprolide to two-fold higher concentration.
T1 sequence (P30969 1-327): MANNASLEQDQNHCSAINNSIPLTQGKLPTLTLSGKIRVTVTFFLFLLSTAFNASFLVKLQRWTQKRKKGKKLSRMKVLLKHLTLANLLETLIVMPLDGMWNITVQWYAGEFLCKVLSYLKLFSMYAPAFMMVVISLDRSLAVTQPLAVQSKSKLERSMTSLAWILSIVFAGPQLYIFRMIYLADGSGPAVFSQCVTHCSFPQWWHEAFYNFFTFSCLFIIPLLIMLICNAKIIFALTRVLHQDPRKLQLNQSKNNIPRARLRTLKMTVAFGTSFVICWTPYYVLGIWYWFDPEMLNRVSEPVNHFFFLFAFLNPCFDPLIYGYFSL
Format: cell-based
Method: Representative compounds of the present invention were evaluated in vitro for inhibition of LH release from rat pituitary cells (pA2). Methods for the assay procedures arc described by F. Haviv, et al. J. Med. Chem., 32:2340-2344 (1989). Values of pA2 are the negative logarithms of the concentration of the particular antagonist test compound required to shift the response curve produced by the agonist leuprolide to two-fold higher concentration. Typically values of 7.0 or greater are indicative of good LHRH antagonist potency, with values of 8.0 or greater being preferred. Leuprolide LHRH agonist, disclosed and claimed in U.S. Pat. No. 4,005,063, has the structure 5-oxo-Pro^1 -His^2 -Trp^3 -Ser^4 -Tyr^5 -D-Leu^6 -Leu^7 -Arg^8 -Pro^9 -NHEt.
In the case of CCCCNC(=O)[C@H](CC(C)C)NC(=O)[C@@H](CCCCNC(=O)c1cccnc1)NC(=O)[C@H](Cc1ccc(O)cc1)N(C)C(=O)[C@H](CO)NC(=O)[C@@H](Cc1cccnc1)NC(=O)[C@@H](Cc1ccc(Cl)cc1)NC(=O)[C@@H](Cc1ccc2ccccc2c1)NC(C)=O [Example 1, NAcD2Nal-D4ClPhe-D3Pal-Ser-NMeTyr-DLys(Nic)-Leu-NH-nBu] (Ac-[d2Nal][dPhe(4-Cl)][d3Pal]S[NMeY][dK](Nicotinoyl)L-NHBu), the “LHRH antagonist potency (pA2)” value is reported as 7.90. In the case of CC(=O)N[C@H](Cc1ccc2ccccc2c1)C(=O)N[C@H](Cc1ccc(Cl)cc1)C(=O)N[C@H](Cc1cccnc1)C(=O)N[C@@H](CO)C(=O)N(C)[C@@H](Cc1ccc(O)cc1)C(=O)N[C@H](CCCCNC(=O)c1cccnc1)C(=O)N[C@@H](CC(C)C)C(=O)NCCN [Example 2, NAcD2Nal-D4ClPhe-D3Pal-Ser-NMeTyr-DLys(Nic)-Leu-NH--(CH2)2 NH2] (Ac-[d2Nal][dPhe(4-Cl)][d3Pal]S[NMeY][dK](Nicotinoyl)L-Ethylenediamine), the “LHRH antagonist potency (pA2)” value is reported as 9.58. CC(=O)N[C@H](Cc1ccc2ccccc2c1)C(=O)N[C@H](Cc1ccc(Cl)cc1)C(=O)N[C@H](Cc1cccnc1)C(=O)N[C@@H](CO)C(=O)N(C)[C@@H](Cc1ccc(O)cc1)C(=O)N[C@H](CCCCNC(=O)c1cccnc1)C(=O)N[C@@H](CC(C)C)C(=O)NCCN1CCCC1 [Example 3, NAcD2Nal-D4ClPhe-D3Pal-Ser-NMeTyr-DLys(Nic)-Leu-NH--(CH2)2 -(1-pyrrolidine)] (Ac-[d2Nal][dPhe(4-Cl)][d3Pal]S[NMeY][dK](Nicotinoyl)L-{NH(2-pyrrolidin-1-ylethyl)}) was tested, and the “LHRH antagonist potency (pA2)” value was 11.27. In the case of CCN(CC)C(=O)[C@H](CC(C)C)NC(=O)[C@@H](CCCCNC(=O)c1cccnc1)NC(=O)[C@H](Cc1ccc(O)cc1)N(C)C(=O)[C@H](CO)NC(=O)[C@@H](Cc1cccnc1)NC(=O)[C@@H](Cc1ccc(Cl)cc1)NC(=O)[C@@H](Cc1ccc2ccccc2c1)NC(C)=O [Example 4, NAcD2Nal-D4ClPhe-D3Pal-Ser-NMeTyr-DLys(Nic)-Leu-N(CH2 CH3)2] (Ac-[d2Nal][dPhe(4-Cl)][d3Pal]S[NMeY][dK](Nicotinoyl)L-NEt2), the “LHRH antagonist potency (pA2)” value is reported as 7.96. For CC(=O)N[C@H](Cc1ccc2ccccc2c1)C(=O)N[C@H](Cc1ccc(Cl)cc1)C(=O)N[C@H](Cc1cccnc1)C(=O)N[C@@H](CO)C(=O)N(C)[C@@H](Cc1ccc(O)cc1)C(=O)N[C@H](CCCCNC(=O)c1cccnc1)C(=O)N[C@@H](CC(C)C)C(=O)NCCCCCCN [Example 5, NAcD2Nal-D4ClPhe-D3Pal-Ser-NMeTyr-DLys(Nic)-Leu-NH--(CH2)6 NH2] (Ac-[d2Nal][dPhe(4-Cl)][d3Pal]S[NMeY][dK](Nicotinoyl)L-{NH(CH2)6NH2}), the “LHRH antagonist potency (pA2)” value was 9.91. With CC(=O)N[C@H](Cc1ccc2ccccc2c1)C(=O)N[C@H](Cc1ccc(Cl)cc1)C(=O)N[C@H](Cc1cccnc1)C(=O)N[C@@H](CO)C(=O)N(C)[C@@H](Cc1ccc(O)cc1)C(=O)N[C@H](CCCCNC(=O)c1cccnc1)C(=O)N[C@@H](CC(C)C)C(=O)NCCCCN [Example 6, NAcD2Nal-D4ClPhe-D3Pal-Ser-NMeTyr-DLys(Nic)-Leu-NH--(CH2)4 NH2] (Ac-[d2Nal][dPhe(4-Cl)][d3Pal]S[NMeY][dK](Nicotinoyl)L-{NH(CH2)4NH2}) the “LHRH antagonist potency (pA2)” value was 9.90. CC(=O)N[C@H](Cc1ccc2ccccc2c1)C(=O)N[C@H](Cc1ccc(Cl)cc1)C(=O)N[C@H](Cc1cccnc1)C(=O)N[C@@H](CO)C(=O)N(C)[C@@H](Cc1ccc(O)cc1)C(=O)N[C@H](CCCCNC(=O)c1cccnc1)C(=O)N[C@@H](CC(C)C)C(=O)NCCO [Example 7, NAcD2Nal-D4ClPhe-D3Pal-Ser-NMeTyr-DLys(Nic)-Leu-NH--(CH2)2 OH] (Ac-[d2Nal][dPhe(4-Cl)][d3Pal]S[NMeY][dK](Nicotinoyl)L-NHCH2CH2OH) was tested, and the “LHRH antagonist potency (pA2)” value was 8.95. CC(=O)N[C@H](Cc1ccc2ccccc2c1)C(=O)N[C@H](Cc1ccc(Cl)cc1)C(=O)N[C@H](Cc1cccnc1)C(=O)N[C@@H](CO)C(=O)N(C)[C@@H](Cc1ccc(O)cc1)C(=O)N[C@H](CCCCNC(=O)c1cccnc1)C(=O)N[C@@H](CC(C)C)C(=O)NCCc1ccccc1 [Example 8, NAcD2Nal-D4ClPhe-D3Pal-Ser-NMeTyr-DLys(Nic)-Leu-NH--(CH2)2 -phenyl] (Ac-[d2Nal][dPhe(4-Cl)][d3Pal]S[NMeY][dK](Nicotinoyl)L-NHPhenethyl) was tested, and the “LHRH antagonist potency (pA2)” value was 8.48. With CC(=O)N[C@H](Cc1ccc2ccccc2c1)C(=O)N[C@H](Cc1ccc(Cl)cc1)C(=O)N[C@H](Cc1cccnc1)C(=O)N[C@@H](CO)C(=O)N(C)[C@@H](Cc1ccc(O)cc1)C(=O)N[C@H](CCCCNC(=O)c1cccnc1)C(=O)N[C@@H](CC(C)C)C(=O)NCCNC(C)C [Example 9, NAcD2Nal-D4ClPhe-D3Pal-Ser-NMeTyr-DLys(Nic)-Leu-NH--(CH2)2 NH-isopropyl] (Ac-[d2Nal][dPhe(4-Cl)][d3Pal]S[NMeY][dK](Nicotinoyl)L-X4) the “LHRH antagonist potency (pA2)” value was 10.21. With CC(=O)N[C@H](Cc1ccc2ccccc2c1)C(=O)N[C@H](Cc1ccc(Cl)cc1)C(=O)N[C@H](Cc1cccnc1)C(=O)N[C@@H](CO)C(=O)N(C)[C@@H](Cc1ccc(O)cc1)C(=O)N[C@H](CCCCNC(=O)c1cccnc1)C(=O)N[C@@H](CC(C)C)C(=O)NCCCCCCCN [Example 10, NAcD2Nal-D4ClPhe-D3Pal-Ser-NMeTyr-DLys(Nic)-Leu-NH--(CH2)7 NH2] (Ac-[d2Nal][dPhe(4-Cl)][d3Pal]S[NMeY][dK](Nicotinoyl)L-{NH(CH2)7NH2}) the “LHRH antagonist potency (pA2)” value was 8.76. For CC(=O)N[C@H](Cc1ccc2ccccc2c1)C(=O)N[C@H](Cc1ccc(Cl)cc1)C(=O)N[C@H](Cc1cccnc1)C(=O)N[C@@H](CO)C(=O)N(C)[C@@H](Cc1ccc(O)cc1)C(=O)N[C@H](CCCCNC(=O)c1cccnc1)C(=O)N[C@@H](CC(C)C)C(=O)NCCCCCCNC(=N)N [Example 11, NAcD2Nal-D4ClPhe-D3Pal-Ser-NMeTyr-DLys(Nic)-Leu-NH--(CH2)6 NH(C=NH)NH2] (Ac-[d2Nal][dPhe(4-Cl)][d3Pal]S[NMeY][dK](Nicotinoyl)L-X10), the “LHRH antagonist potency (pA2)” value was 9.10. With CC(=O)N[C@H](Cc1ccc2ccccc2c1)C(=O)N[C@H](Cc1ccc(Cl)cc1)C(=O)N[C@H](Cc1cccnc1)C(=O)N[C@@H](CO)C(=O)N(C)[C@@H](Cc1ccc(O)cc1)C(=O)N[C@H](CCCCNC(=O)c1cccnc1)C(=O)N[C@@H](CC(C)C)C(=O)NCCCCCNC(C)C [Example 12, NAcD2Nal-D4ClPhe-D3Pal-Ser-NMeTyr-DLys(Nic)-1-Leu-NH--(CH2)5 NH-isopropyl] (Ac-[d2Nal][dPhe(4-Cl)][d3Pal]S[NMeY][dK](Nicotinoyl)L-X11) the “LHRH antagonist potency (pA2)” value was 10.45. For CC(=O)N[C@H](Cc1ccc2ccccc2c1)C(=O)N[C@H](Cc1ccc(Cl)cc1)C(=O)N[C@H](Cc1cccnc1)C(=O)N[C@@H](CO)C(=O)N(C)[C@@H](Cc1ccc(O)cc1)C(=O)N[C@H](CCCCNC(=O)c1cccnc1)C(=O)N[C@@H](CC(C)C)C(=O)NCCCCCN [Example 13, NAcD2Nal-D4ClPhe-D3Pal-Ser-NMeTyr-DLys(Nic)-Leu-NH--(CH2)5 NH2] (Ac-[d2Nal][dPhe(4-Cl)][d3Pal]S[NMeY][dK](Nicotinoyl)L-{NH(CH2)5NH2}), the “LHRH antagonist potency (pA2)” value was 9.30. For CC(=O)N[C@H](Cc1ccc2ccccc2c1)C(=O)N[C@H](Cc1ccc(Cl)cc1)C(=O)N[C@H](Cc1cccnc1)C(=O)N[C@@H](CO)C(=O)N(C)[C@@H](Cc1ccc(O)cc1)C(=O)N[C@H](CCCCNC(=O)c1cccnc1)C(=O)N[C@@H](CC(C)C)C(=O)NCCCCCNC(=N)N [Example 14, NAcD2Nal-D4ClPhe-D3Pal-Ser-NMeTyr-DLys(Nic)-Leu-NH--(CH2)5 NH(C=NH)NH2] (Ac-[d2Nal][dPhe(4-Cl)][d3Pal]S[NMeY][dK](Nicotinoyl)L-X12), the “LHRH antagonist potency (pA2)” value was 9.81. In the case of CC(=O)N[C@H](Cc1ccc2ccccc2c1)C(=O)N[C@H](Cc1ccc(Cl)cc1)C(=O)N[C@H](Cc1cccnc1)C(=O)N[C@@H](CO)C(=O)N(C)[C@@H](Cc1ccc(O)cc1)C(=O)N[C@H](CCCCNC(=O)c1cccnc1)C(=O)N[C@@H](CC(C)C)C(=O)NCCCN [Example 15, NAcD2Nal-D4ClPhe-D3Pal-Ser-NMeTyr-DLys(Nic)-Leu-NH--(CH2)3 NH2] (Ac-[d2Nal][dPhe(4-Cl)][d3Pal]S[NMeY][dK](Nicotinoyl)L-{NH(CH2)3NH2}), the “LHRH antagonist potency (pA2)” value is reported as 8.70. CC(=O)N[C@H](Cc1ccc2ccccc2c1)C(=O)N[C@H](Cc1ccc(Cl)cc1)C(=O)N[C@H](Cc1cccnc1)C(=O)N[C@@H](CO)C(=O)N(C)[C@@H](Cc1ccc(O)cc1)C(=O)N[C@H](CCCCNC(=O)c1cccnc1)C(=O)N[C@@H](CC(C)C)C(=O)NCCNC(=N)N [Example 16, NAcD2Nal-D4ClPhe-D3Pal-Ser-NMeTyr-DLys(Nic)-Leu-NH--(CH2)2 NH(C=NH)NH2] (Ac-[d2Nal][dPhe(4-Cl)][d3Pal]S[NMeY][dK](Nicotinoyl)L-X2) was tested, and the “LHRH antagonist potency (pA2)” value was 8.89. For CC(=O)N[C@H](Cc1ccc2ccccc2c1)C(=O)N[C@H](Cc1ccc(Cl)cc1)C(=O)N[C@H](Cc1cccnc1)C(=O)N[C@@H](CO)C(=O)N(C)[C@@H](Cc1ccc(O)cc1)C(=O)N[C@H](CCCCNC(=O)c1cccnc1)C(=O)N[C@@H](CC(C)C)C(=O)NCCCCCCCCCCN [Example 17, NAcD2Nal-D4ClPhe-D3Pal-Ser-NMeTyr-DLys(Nic)-Leu-NH--(CH2)10 NH2] (Ac-[d2Nal][dPhe(4-Cl)][d3Pal]S[NMeY][dK](Nicotinoyl)L-{NH(CH2)10NH}), the “LHRH antagonist potency (pA2)” value was 7.63.

Source: patent publication US6191115A, “C-terminus modified heptapeptide LHRH analogs” (Abbott Laboratories, priority 1999, dated 2001)
